Measured values from ChEMBL document CHEMBL1795309, “Thiophenyl oxime-derived phosphonates as nano-molar class C beta-lactamase inhibitors reducing MIC of imipenem against Pseudomonas aeruginosa and Acinetobacter baumannii” (Bioorg Med Chem Lett, 2011).
pIC50: −log10 of the molar value. Active and inactive are the calls of the source. The calls are words filed in the database; no cut-off is given here.

Tests used:
[1] = Inhibition of Pseudomonas aeruginosa beta lactamase TEM-1
[2] = molecular target: Beta-lactamase SHV-5 (Klebsiella pneumoniae, UniProt P0A3M1); experiment: Inhibition of Klebsiella pneumoniae beta lactamase SHV-5
[3] = molecular target: Beta-lactamase (Pseudomonas aeruginosa (strain ATCC 15692 / PAO1 / 1C / PRS 101 / LMG12228), UniProt P24735); experiment: Inhibition of Pseudomonas aeruginosa beta lactamase AmpC
[4] = molecular target: Beta-lactamase (Enterobacter cloacae, UniProt P05364); experiment: Inhibition of Enterobacter cloacae beta lactamase P99
[5] = molecular target: Beta-lactamase (Acinetobacter baumannii, UniProt Q8RLA6); experiment: Inhibition of Acinetobacter baumannii beta lactamase OXA-40
[6] = tested on: Pseudomonas aeruginosa; experiment: Antimicrobial activity against imipenem-resistant Pseudomonas aeruginosa expressing beta lactamase AmpC assessed as reduction in imipenim MIC up to 100 uM; type: functional, organism-based
[7] = tested on: Pseudomonas aeruginosa; experiment: Antimicrobial activity against imipenem-resistant Pseudomonas aeruginosa expressing beta lactamase AmpC assessed as reduction in imipenim MIC; type: functional, organism-based
[8] = tested on: Pseudomonas aeruginosa; experiment: Antimicrobial activity against imipenem-resistant Pseudomonas aeruginosa expressing beta lactamase AmpC up to 100 uM; type: functional, organism-based
[9] = tested on: Acinetobacter baumannii; experiment: Antimicrobial activity against imipenem-resistant Acinetobacter baumannii CL6188 assessed as reduction in imipenim MIC; type: functional, organism-based
[10] = tested on: Acinetobacter baumannii; experiment: Antimicrobial activity against imipenem-resistant Acinetobacter baumannii CL6188 at 100 uM; type: functional, organism-based
[11] = Half life in mouse at 2.5 mg/kg, iv; type: ADME, organism-based; design: dose 2.5 mg/kg, route intravenous; conditions: in vivo
[12] = tested on: Mus musculus; experiment: Dose normalized AUC in mouse at 2.5 mg/kg, iv; type: ADME, organism-based; design: dose 2.5 mg/kg, route intravenous; conditions: in vivo
[13] = Clearance in mouse at 2.5 mg/kg, iv; type: ADME, organism-based; design: dose 2.5 mg/kg, route intravenous; conditions: in vivo
[14] = Volume of distribution in mouse at 2.5 mg/kg, iv; type: ADME, organism-based; design: dose 2.5 mg/kg, route intravenous; conditions: in vivo

Beta-lactamase (Acinetobacter baumannii, UniProt Q8RLA6), sequence (Q8RLA6 whole entry): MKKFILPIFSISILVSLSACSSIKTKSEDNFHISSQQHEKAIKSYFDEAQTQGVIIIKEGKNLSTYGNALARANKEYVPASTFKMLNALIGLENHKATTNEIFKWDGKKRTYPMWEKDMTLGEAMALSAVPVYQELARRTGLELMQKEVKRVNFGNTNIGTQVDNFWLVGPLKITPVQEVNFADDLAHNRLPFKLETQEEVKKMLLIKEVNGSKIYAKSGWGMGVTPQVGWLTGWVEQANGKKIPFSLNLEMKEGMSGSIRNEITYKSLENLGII
Beta-lactamase (Enterobacter cloacae, UniProt P05364), sequence (P05364 whole entry): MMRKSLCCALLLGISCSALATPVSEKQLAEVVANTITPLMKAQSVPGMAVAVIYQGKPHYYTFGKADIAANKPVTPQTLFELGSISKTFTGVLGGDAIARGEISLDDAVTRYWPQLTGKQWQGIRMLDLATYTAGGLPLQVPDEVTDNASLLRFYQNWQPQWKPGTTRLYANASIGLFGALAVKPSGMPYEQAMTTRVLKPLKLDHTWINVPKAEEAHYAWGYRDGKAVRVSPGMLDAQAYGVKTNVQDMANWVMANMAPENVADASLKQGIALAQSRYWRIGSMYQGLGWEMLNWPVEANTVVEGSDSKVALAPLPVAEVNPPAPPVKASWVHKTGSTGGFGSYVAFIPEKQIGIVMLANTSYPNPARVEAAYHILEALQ
Beta-lactamase SHV-5, sequence (P0A3M1 whole entry): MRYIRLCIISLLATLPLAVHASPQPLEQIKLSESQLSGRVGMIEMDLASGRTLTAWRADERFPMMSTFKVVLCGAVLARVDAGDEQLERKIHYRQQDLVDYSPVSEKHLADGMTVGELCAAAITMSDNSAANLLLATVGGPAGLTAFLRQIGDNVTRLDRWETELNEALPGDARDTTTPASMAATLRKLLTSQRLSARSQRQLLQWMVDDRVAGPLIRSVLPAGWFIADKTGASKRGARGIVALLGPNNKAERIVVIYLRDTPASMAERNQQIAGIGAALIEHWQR
Beta-lactamase (Pseudomonas aeruginosa (strain ATCC 15692 / PAO1 / 1C / PRS 101 / LMG12228), UniProt P24735), sequence (P24735 whole entry): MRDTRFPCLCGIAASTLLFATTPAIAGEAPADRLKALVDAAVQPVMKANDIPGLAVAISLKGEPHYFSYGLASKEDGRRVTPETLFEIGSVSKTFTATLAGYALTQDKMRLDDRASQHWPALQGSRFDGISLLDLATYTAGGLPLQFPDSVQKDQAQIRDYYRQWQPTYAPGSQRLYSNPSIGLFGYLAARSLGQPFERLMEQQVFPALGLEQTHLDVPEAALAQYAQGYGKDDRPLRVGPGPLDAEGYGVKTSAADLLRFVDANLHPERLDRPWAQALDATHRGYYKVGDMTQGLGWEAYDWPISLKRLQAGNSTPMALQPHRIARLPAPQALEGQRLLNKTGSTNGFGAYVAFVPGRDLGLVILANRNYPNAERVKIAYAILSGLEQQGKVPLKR

Row | Structure (SMILES) | pIC50 [1] | pIC50 [2] | pIC50 [3] | pIC50 [4] | pIC50 [5] | Activity [6] | Activity [7] | Activity [8] | Activity [9] | Activity [10] | half-life [11] | AUC/dose [12] | clearance [13] | Vd [14]
1 | CO/N=C(\C(=O)NCP(=O)(O)Oc1ccc(C#N)c(F)c1)c1cnc(N)s1 | < 4.30 | < 4.30 | 5.82 | 6.10 | < 4.30 | – | – | – | – | – | – | – | – | –
2 | CON=C(C(=O)NCP(=O)(O)Oc1ccc(C#N)c(F)c1)c1cccs1 | < 4.30 | < 4.30 | 8.02 | 7.41 | < 4.30 | – | – | – | – | – | – | – | – | –
3 | CO/N=C(\C(=O)NCP(=O)(O)O)c1cccs1 | < 4.30 | < 4.30 | 5.19 | 4.68 | < 4.30 | – | – | – | – | – | – | – | – | –
4 | CO/N=C(\C(=O)NCP(=O)(O)Oc1ccc(C#N)c(F)c1)c1cccs1 | < 4.30 | < 4.90 | 7.34 | 7.00 | 4.59 | – | – | – | – | – | – | – | – | –
5 | N#Cc1ccc(OP(=O)([O-])CNC(=O)/C(=N\OCCC[n+]2ccccc2)c2cccs2)cc1F (stereo in doubt; 6a) | 4.77 | < 4.30 | 7.68 | 7.06 | 4.57 | – | – | – | – | – | – | – | – | –
6 | CO/N=C(/C(=O)NCP(=O)(O)O)c1cccs1 | < 4.30 | < 4.30 | 5.49 | 5.52 | < 4.30 | – | – | – | – | – | – | – | – | –
7 | N#Cc1ccc(OP(=O)([O-])CNC(=O)/C(=N\OCCC[n+]2ccccc2)c2cccs2)cc1F (stereo in doubt; 6b) | < 4.30 | < 4.30 | 7.06 | 6.77 | < 4.30 | – | – | – | – | – | – | – | – | –
8 | CO/N=C(/C(=O)NCP(=O)(O)Oc1ccc(C#N)c(F)c1)c1ccc(Cl)s1 | 4.80 | – | 8.30 | 7.72 | 4.51 | Active | Dose-dependent effect | inactive | inactive | inactive | – | – | – | –
9 | CO/N=C(/C(=O)NCP(=O)(O)Oc1ccc(C#N)c(F)c1)c1cccs1 | 4.55 | 4.66 | 8.12 | 7.49 | 4.77 | Active | Dose-dependent effect | inactive | Active | inactive | 32.4 min | 0.98 µM/h/kg/mg | 43 mL/min/kg | 1 L/kg
10 | CO/N=C(\C(=O)NCP(=O)(O)Oc1ccc(C#N)c(F)c1)c1cnc(NC(=O)C(Cl)(Cl)Cl)s1 (stereo in doubt; 2a) | < 4.30 | 4.60 | 5.52 | 6.47 | < 4.90 | – | – | – | – | – | – | – | – | –
11 | CO/N=C(\C(=O)NCP(=O)(O)Oc1ccc(C#N)c(F)c1)c1cnc(NC(=O)C(Cl)(Cl)Cl)s1 (stereo in doubt; 2b) | – | 4.82 | 5.52 | 6.15 | < 4.90 | – | – | – | – | – | – | – | – | –
12 | N#Cc1ccc(OP(=O)(O)CNC(=O)C(=NO)c2cccs2)cc1F | 4.64 | 4.57 | 6.70 | 7.00 | 4.68 | – | – | – | – | – | – | – | – | –
